Earlier results in US20200268770A1, “PHARMACEUTICAL COMPOSITION USED FOR TREATING METABOLIC SYNDROME DISORDERS, INFECTIOUS DISEASES, AND COMPLICATIONS THEREOF” (priority 2017, published 2020).
Where two headings read alike, the source gives them in different places.

Experiments:
[1] = tested on: C57BL/6 mice fed with high fat foods
3T3-L1 cells = 3T3-L1 cells stimulated by differentiation inducers
[2] = pre-treatment, C57BL/6 mice fed with high fat foods

For `C=C(C)[C@H]1CC=C(C)CC1` [d-limonene], the “fasting blood glucose levels” value [1, 2] is listed as “lowered”, the hepatic lipid accumulation [1, 2] is listed as “prevented” and the “serum triglycerides (TG)” value [1, 2] is listed as “lowered”. The “size of white and brown adipocytes” value [1, 2] was “decreased”, the “fasting blood glucose levels” value ([1]; therapeutic, obese mice) was “reduced” and the glucose tolerance ([1]; therapeutic, obese mice) was “reduced”. The “high-density lipoprotein cholesterol (HDL-c)” value ([1]; therapeutic, obese mice) was “increased”, the “low-density lipoprotein cholesterol (LDL-c)” value ([1]; therapeutic, obese mice) was “reduced” and the “serum TG” value ([1]; therapeutic, obese mice) was “reduced”.

In the case of `C=C(C)[C@@H]1CC[C@]2(C)CC[C@]3(C)[C@H](CC[C@@H]4[C@@]5(C)CC[C@H](O)C(C)(C)[C@@H]5CC[C@]43C)[C@@H]12` [lupeol], the TG synthesis (3T3-L1 cells) is listed as “strongly blocked”, the lipid droplet accumulation (3T3-L1 cells) is listed as “strongly blocked” and the glycated hemoglobin (after 21 days) is listed as “decrease”. For the same molecule, the nitric oxide (after 21 days) was “decrease”, the progression of diabetes (after 21 days) was “suppressed” and the serum glucose (after 21 days) was “decrease”. For the same molecule, the serum insulin levels (after 21 days) was “concomitant increase”, the antioxidant levels (in vivo) was “increased” and the “content of thiobarbituric acid-reactive substances” value (in vivo) was “decrease”.
